Measurements: patent publication US9737603B1, “Alcohol-based local anesthesia and associated use thereof” (priority 2014, dated 2017)

Assays:
skin tissue [1] = settings: topical; cited from earlier work
[2] = Solution stability (precipitation of benzocaine); format: physicochemical; settings: liquid embodiment, isopropyl alcohol 70-75% (v)
Description: In a non-limiting exemplary embodiment, the alcohol-based topical anesthesia chemical composition 10 may be stored in a tightly sealed container at 25 C or a temperature range of 20 C to 40 C. Temperatures below 15 C may cause the benzocaine to precipitate.
However, beyond 16% (w/v) of benzocaine, the solution stability becomes an issue due to the precipitation of benzocaine; and menthol can be effectively utilized in the range 1% to 3% (w/v).

skin tissue [3] = test: Topical anesthesia / analgesia after application to skin; format: in vivo; settings: 1% (w/v) menthol, preliminary work
Description: The alcohol-based topical anesthesia chemical composition 10 also has a skin analgesic, menthol 1% (w/v).

Compound: C[C@]12CCC(=O)C=C1CC[C@@H]1[C@@H]2[C@@H](O)C[C@@]2(C)[C@H]1CC[C@]2(O)C(=O)CO [Hydrocortisone]
- analgesia (alternatives to menthol) (skin tissue [1]): does not provide immediate analgesia

Compound: CCOC(=O)c1ccc(N)cc1 [benzocaine]
- benzocaine concentration beyond which solution stability becomes an issue due to precipitation of benzocaine [2]: > 16 % (w/v)

Compound: CC1CCC(C(C)C)C(O)C1 (stereo not drawn) [menthol]
- counterirritant analgesic property (skin tissue [3]): safe yet effective
